Numbering of substitutions follows the chain as printed. Where no end group is shown, it is not given here.
Experiments:
Assay in all cases: Homologous whole cell competition binding
Settings in all cases: homologous competition of 125I-sCT(8-32), whole cells, mean ± S.E.M., SEM
hCTR I279A = target: T1, hCTR I279A (Homo sapiens, UniProt P30988, I279A)
T1 construct: expressed in transfected cells
T1 sequence (P30988 25-474 I279A): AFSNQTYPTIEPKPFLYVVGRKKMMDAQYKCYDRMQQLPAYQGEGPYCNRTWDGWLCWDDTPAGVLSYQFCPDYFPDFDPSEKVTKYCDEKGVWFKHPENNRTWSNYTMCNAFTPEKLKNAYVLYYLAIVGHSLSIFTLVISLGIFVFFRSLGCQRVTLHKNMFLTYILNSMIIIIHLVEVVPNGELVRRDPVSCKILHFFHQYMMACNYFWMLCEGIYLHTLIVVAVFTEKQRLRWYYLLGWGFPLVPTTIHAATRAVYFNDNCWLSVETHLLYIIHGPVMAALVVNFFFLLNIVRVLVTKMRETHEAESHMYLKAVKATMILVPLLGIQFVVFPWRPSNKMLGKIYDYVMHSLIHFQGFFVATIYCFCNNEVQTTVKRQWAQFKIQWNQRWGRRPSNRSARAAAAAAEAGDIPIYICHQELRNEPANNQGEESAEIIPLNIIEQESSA
Outline: (§1)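 Affinity comes from self-competition of sCT(8-32) against its iodinated form on intact cells, held at 4 °C overnight. Bound counts were read on a gamma counter, fitted to a 3-parameter logistic curve and converted with Cheng-Prusoff.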

hCTR M376A = target: T2, hCTR M376A (Homo sapiens, UniProt P30988, M376A)
T2 construct: c-Myc (N); expressed in transfected cells
T2 sequence (P30988 25-474 M376A): T1 sequence (P30988 25-474 I279A) with A255I, M352A
Outline: as §1

hCTR N365A = target: T3, hCTR N365A (Homo sapiens, UniProt P30988, N365A)
T3 construct: c-Myc (N); expressed in transfected cells
T3 sequence (P30988 25-474 N365A): T1 sequence (P30988 25-474 I279A) with A255I, N341A
Outline: as §1

hCTR Y299A = target: T4, hCTR Y299A (Homo sapiens, UniProt P30988, Y299A)
T4 construct: c-Myc (N); expressed in transfected cells
T4 sequence (P30988 25-474 Y299A): T1 sequence (P30988 25-474 I279A) with A255I, Y275A
Outline: as §1

Q: For “VLGKLSQELHKLQTYPRTNTGSGTP-NH2 [sCT(8-32)]”, which Ki (hCTR I279A) is on record?
A: The Ki was 0.191 nM.

Q: What about the Ki (hCTR M376A) of the same substance?
A: Its Ki is 0.132 nM.

Q: What about the Ki (hCTR N365A) of the same substance?
A: The Ki was 0.234 nM.

Q: What about the Ki (hCTR Y299A) of the same substance?
A: Its Ki is 0.107 nM.

— paper PMC5908784, “Extracellular loops 2 and 3 of the calcitonin receptor selectively modify agonist binding and efficacy” (Biochemical Pharmacology, 2018)
